Laboratory results reported in patent US20230357189A1, “MODIFIED FLUOROQUINOLONES AND USES THEREOF” (Technion Research & Development Foundation Limited, priority 2021, published 2023).
Converted amounts (≈) assume the structure as drawn.

Key:
[1] = tested on: Escherichia coli R477-100; assay: Antibacterial activity, MIC by double-microdilution method; assay type: cell-based; conditions: for Gram-negative MIC a: Table 2, without DTT; for Gram-negative MIC a / Gram-negative MIC, DTT 10 mM / Gram-negative MIC, DTT 0 mM / Gram-negative MIC, DTT 2 mM: Escherichia coli R477-100; for improvement of MIC in the presence of DTT: 10 mM DTT vs without DTT, Gram-negative E. coli R477-100; for Gram-negative MIC, DTT 0 mM / Gram-negative MIC, DTT 2 mM: Table 3
Escherichia coli 25922 = assay: as above; assay type: cell-based; conditions: Table 2; Escherichia coli 25922
[2] = tested on: Staphylococcus Epidermidis; assay: as above; assay type: cell-based; conditions: Table 2
Bacillus Subtilis = assay: as above; assay type: cell-based; conditions: Bacillus Subtilis; for Gram-positive MIC d: Table 2; for Gram-positive MIC, DTT 0 mM / Gram-positive MIC, DTT 2 mM / Gram-positive MIC, DTT 10 mM: Table 3
[3] = tested on: supercoiled (+) pHOT-1 plasmid DNA; assay: DNA cleavage assay (gel electrophoresis); assay type: biochemical; conditions: for DNase activity (cleavage of supercoiled plasmid, form I to form II): absence of adjuvants, HEPES buffer (50 mM, pH 7.4), 5 hours
Protocol: Removal of Ligands Prior to Electrophoresis was performed when more than 100 μM of Cu(II)-ligand or Co(III) ligand (at any concentration) complexes were employed that is, for DNA cleavage assays that were performed in the absence of any adjuvants. An Amberlyst® 15 (Sigma Aldrich) ion-exchange resin was prepared according to the reported literature [Hettich et al. J. Am. Chem. Soc. 1997, 119 (24), 5638-5647] and stored at −20° C. Before use, 0.5 gram of the exchanger was mixed with 250 μL of water. After stopping the DNA-cleavage reaction by addition of EDTA (54 mM, 15 minutes incubation at 37° C.), 10 μL of the exchanger suspension was added, vortexed, and incubated at 37° C. for 15 minutes before centrifugation and electrophoresis.
DNA cleavage activity of the tested Complexes towards supercoiled (+) pHOT-1 plasmid DNA (TopoGEN) was monitored by gel electrophoresis. In a typical experiment, plasmid DNA (200 ng, […]) in HEPES buffer (50 mM, pH 7.4) was mixed with different concentrations of a tested metal complex in the presence or absence of ascorbic acid (0.32 mM). All stock solutions of buffers and of the metal complexes were prepared using HPLC grade water (ChromAR®). Molecular biology reagent grade water (Sigma) was added up to a total reaction volume of 30 μL before incubation for a given time. For the ascorbic acid assays, the reaction was quenched immediately after incubation with EDTA (54 mM). For analysis, 10 μL of loading buffer (40% sucrose, 100 mM Tris-HCl (pH 7.5), 1 mM EDTA, 0.5 mg·mL^−1 bromophenol blue) was added to the incubated solution and loaded onto an agarose (SeaKem LE) gel [1% in TAE×1 buffer (40 mM Tris, 20 mM acetic acid, 1 mM EDTA)]. Electrophoresis was carried out at 60 V for 2 hours. Gels were stained with 1 μg·mL^−1 ethidium bromide for 30 minutes and de-stained in TAE×1 buffer. DNA bands were visualized with medium-range ultraviolet light using Bio-Rad Gel Doc XR+ imaging system. The quantity of different DNA forms (I or II) was estimated using ImageJ software.
Chem. 2015, 2015 (28), 4722-4730; Kashiba-Iwatsuki et al. FEBS Lett. 1996, 389 (2), 149-15].
The copper complex of compound 2 (2-Cu(II)) was used as the positive control in these assays.

E. coli DNA gyrase = target: T1, E. coli DNA gyrase (Escherichia coli, UniProt P0AES4+P0AES6); assay: E. coli Gyrase-DNA supercoiling assay; assay type: biochemical; conditions: supercoiling of relaxed pHOT-1 plasmid in presence of ATP; 37° C., 60 minutes
T1 construct: purchased TopoGEN
Protocol: The DNA supercoiling reactions were based on the manufacturer protocol (TopoGEN). The amount of DNA gyrase used in each assay was optimized by testing various dilutions of the stock. The amount sufficient to supercoil 250 nanograms (ng) of the substrate in 1 hour at 37° C. was then used for testing the compounds (1.1 U as defined by manufacturer). Assays (30 μL) contained 250 nanograms of relaxed pHOT1 plasmid DNA in Tris-HCl buffer (35 mM), pH 7.5, containing KCl (24 mM), MgCl2 (4 mM), DTT (2 mM), Spermidine (1.8 mM), ATP (1 mM), 6.5% (w/v) glycerol and bovine serum albumin (0.1 mg/ml). Reactions were incubated at 37° C. for 60 minutes. Reaction mixtures were stopped by the addition of 30 μL of loading buffer (40% sucrose, 100 mM Tris·HCl (pH 7.5), 1 mM EDTA, 0.5 mg×mL^−1 bromophenol blue) and worked up using 30 μL of 24:1 chloroform/isoamyl alcohol mixture; the aqueous layer was then analyzed using electrophoresis.
Electrophoresis, gel staining, DNA visualization and DNA quantification were performed as described for the DNA cleavage assays.

SMILES	DNase activity (cleavage of supercoiled plasmid, form I to form II) [3]	Gram-negative MIC, DTT 10 mM [1]	Gram-negative MIC, DTT 0 mM [1]	Gram-negative MIC, DTT 2 mM [1]	Gram-positive MIC, DTT 0 mM (Bacillus Subtilis)	Gram-positive MIC, DTT 2 mM (Bacillus Subtilis)	Gram-positive MIC, DTT 10 mM (Bacillus Subtilis)	MIC ([1]; E. coli R477-100, metal-free compound)	Gram-negative MIC a [1]	Gram-negative MIC b (Escherichia coli 25922)	Gram-positive MIC c [2]	Gram-positive MIC d (Bacillus Subtilis)	DNase activity at micromolar concentrations ([3]; FIG. 32: 0.2 μg DNA over 2 hours (Co(III)-cyclen, 4-Co(III)), 0.6 μg DNA over 10 hours (23-Co(III)))	IC50 (E. coli DNA gyrase)	improvement of MIC in the presence of DTT [1]
O.O=C(O)c1cn(C2CC2)c2cc(N3CCN(CCCCCCN4CCNCCNCCNCC4)CC3)c(F)cc2c1=O.[Co+3].[OH-] [1-Co(III)]	–	–	–	–	–	–	–	–	12 µg/mL	12 µg/mL	24 µg/mL	12 µg/mL	–	–	–
O.O=C(O)c1cn(C2CC2)c2cc(N3CCN(CCCCCCCN4CCNCCNCCNCC4)CC3)c(F)cc2c1=O.[Co+3].[OH-] [2-Co(III)]	–	–	–	–	–	–	–	–	12 µg/mL	6 µg/mL	24 µg/mL	12 to 24 µg/mL	–	–	–
O.O=C(O)c1cn(C2CC2)c2cc(N3CCN(CCCCCCCCN4CCNCCNCCNCC4)CC3)c(F)cc2c1=O.[Co+3].[OH-] [3-Co(III)]	–	–	–	–	–	–	–	–	12 µg/mL	6 µg/mL	12 to 24 µg/mL	12 µg/mL	–	–	–
O.O=C(O)c1cn(C2CC2)c2cc(N3CCN(CCCCCCCCN4CCNCCNCCNCC4)CC3)c(F)cc2c1=O.[Cu+2] [3-Cu(II)]	only very limited activity	–	–	–	–	–	–	–	12 µg/mL	6 µg/mL	6 µg/mL	6 µg/mL	–	–	–
O.O=C(O)c1cn(C2CC2)c2cc(N3CCN(Cc4ccc(CN5CCNCCNCCNCC5)cc4)CC3)c(F)cc2c1=O.[Co+3].[OH-] [4-Co(III)]	–	–	–	–	–	–	–	–	12 µg/mL	6 µg/mL	6 µg/mL	6 µg/mL	strong DNA binding but no DNase activity	–	–
O.O=C(O)c1cn(C2CC2)c2cc(N3CCN(Cc4ccc(CCCN5CCNCCNCCNCC5)cc4)CC3)c(F)cc2c1=O.[Cu+2] [6-Cu(II)]	only very limited activity	–	–	–	–	–	–	–	6 µg/mL	3 µg/mL	3 µg/mL	6 µg/mL	–	90 ± 10 nM	–
O=C(O)c1cn(C2CC2)c2cc(N3CCN(CCCCCCCCN4CCNCCNCCNCC4)CC3)c(F)cc2c1=O [Compound 3]	–	–	–	–	–	–	–	–	24 to 48 µg/mL	12 µg/mL	6 µg/mL	6 µg/mL	–	–	–
[Cl][Cu][Cl] [CuCl2, reference compound]	–	–	–	–	–	–	–	–	>384 µg/mL	>384 µg/mL	>384 µg/mL	>384 µg/mL	–	–	no change whatsoever

Now from value to compound, other results behind:

DNase activity (cleavage of supercoiled plasmid, form I to form II) [3]	Gram-negative MIC, DTT 10 mM [1]	Gram-negative MIC, DTT 0 mM [1]	Gram-negative MIC, DTT 2 mM [1]	Gram-positive MIC, DTT 0 mM (Bacillus Subtilis)	Gram-positive MIC, DTT 2 mM (Bacillus Subtilis)	Gram-positive MIC, DTT 10 mM (Bacillus Subtilis)	MIC ([1]; E. coli R477-100, metal-free compound)	SMILES	Gram-negative MIC a [1]	Gram-negative MIC b (Escherichia coli 25922)	Gram-positive MIC c [2]	Gram-positive MIC d (Bacillus Subtilis)	DNase activity at micromolar concentrations ([3]; FIG. 32: 0.2 μg DNA over 2 hours (Co(III)-cyclen, 4-Co(III)), 0.6 μg DNA over 10 hours (23-Co(III)))	IC50 (E. coli DNA gyrase)	improvement of MIC in the presence of DTT [1]
significant hydrolytic DNase activity	3 µg/mL	24 µg/mL	6 µg/mL	12 µg/mL	6 µg/mL	3 µg/mL	–	NCCN1CCNCCNCCN(Cc2ccc(CN3CCN(c4cc5c(cc4F)c(=O)c(C(=O)[O-])cn5C4CC4)CC3)cc2)CC1.[Cu+2] [23-Cu(II)]	24 µg/mL	24 µg/mL	12 µg/mL	12 µg/mL	–	–	significant improvement in antibacterial activity
significant DNase activity	12 µg/mL	12 µg/mL	12 µg/mL	6 µg/mL	6 to 12 µg/mL	6 µg/mL	–	N=C(N)NCCN1CCNCCNCCN(Cc2ccc(CN3CCN(c4cc5c(cc4F)c(=O)c(C(=O)O)cn5C4CC4)CC3)cc2)CC1 [Compound 19]	12 µg/mL	12 µg/mL	6 µg/mL	6 µg/mL	–	–	–
–	24 µg/mL	24 µg/mL	12 µg/mL	12 µg/mL	6 to 12 µg/mL	12 µg/mL	–	N=C(N)NCCN1CCNCCNCCN(CCc2ccc(CN3CCN(c4cc5c(cc4F)c(=O)c(C(=O)O)cn5C4CC4)CC3)cc2)CC1 [Compound 20]	24 µg/mL	24 µg/mL	24 µg/mL	12 µg/mL	–	–	–
–	6 µg/mL	12 µg/mL	6 µg/mL	12 µg/mL	12 µg/mL	6 µg/mL	–	N=C(N)NCCN1CCNCCNCCN(CCCc2ccc(CN3CCN(c4cc5c(cc4F)c(=O)c(C(=O)O)cn5C4CC4)CC3)cc2)CC1 [Compound 21]	12 µg/mL	12 µg/mL	6 µg/mL	6 µg/mL	–	–	–
significant DNase activity	12 µg/mL	24 µg/mL	12 µg/mL	6 µg/mL	6 µg/mL	3 µg/mL	24 µg/mL (≈ 37 µM)	NCCN1CCNCCNCCN(Cc2ccc(CN3CCN(c4cc5c(cc4F)c(=O)c(C(=O)O)cn5C4CC4)CC3)cc2)CC1 [Compound 23]	24 µg/mL	24 µg/mL	12 µg/mL	6 µg/mL	–	–	–
–	12 µg/mL	12 µg/mL	6 µg/mL	6 µg/mL	6 µg/mL	6 µg/mL	–	NCCN1CCNCCNCCN(CCCCc2ccc(CN3CCN(c4cc5c(cc4F)c(=O)c(C(=O)O)cn5C4CC4)CC3)cc2)CC1 [Compound 26]	12 µg/mL	12 µg/mL	6 µg/mL	6 µg/mL	–	–	–
